From ChEMBL document CHEMBL6134819, “Discovery of novel tranylcypromine-indazole-based derivatives as LSD1 inhibitors for acute myeloid leukemia treatment” (Eur J Med Chem, 2025)
Active and inactive are the calls of the source. The calls are words filed in the database; no cut-off is given here.

What was measured:
MV4-11 [1] = experiment: Induction of apoptosis in human MV4-11 cells assessed as increase in cleaved caspase-7 level at 2 to 4 micromol/L measured after 72 hrs by Western blot analysis; type: functional, cell-based; conditions: dose 2-4 µmol/L
[2] = Solubility in PBS buffer at pH 7.4 measured after 2 hrs by LC-MS/MS analysis; type: physicochemical
MV4-11 [3] = experiment: Induction of apoptosis in human MV4-11 cells assessed as viable cells at 3 micromol/L measured after 48 hrs by Annexin V-FITC/PI double staining based flow cytometry analysis (reference value: 89.13%); type: functional; conditions: MV4-11, 48 h, dose 3 µmol/L, read-out: Activity
[4] = Metabolic stability in mouse liver microsomes assessed as intrinsic clearance measured up to 60 mins in presence of NADPH by LC-MS/MS analysis; type: ADME, Microsome; conditions: read-out: CLH
[5] = Clearance in male Sprague-Dawley rat at 1 mg/kg, iv measured up to 24 hrs by LC-MS/MS analysis; type: ADME, organism-based; conditions: in vivo
[6] = target: Lysine-specific histone demethylase 1A (Homo sapiens, UniProt O60341); experiment: Inhibition of LSD1 in human MV4-11 cells assessed as increase in H3K4 expression level at 2 to 4 micromol/L measured after 48 hrs by Western blot analysis; type: cell-based; conditions: dose 2-4 µmol/L
MV4-11 [7] = experiment: Induction of apoptosis in human MV4-11 cells assessed as increase in cleaved PARP level at 2 to 4 micromol/L measured after 72 hrs by Western blot analysis; type: functional, cell-based; conditions: dose 2-4 µmol/L
[8] = Oral bioavailability in male Sprague-Dawley rat at 10 mg/kg measured up to 24 hrs by LC-MS/MS analysis; type: ADME, organism-based; conditions: in vivo
[9] = Metabolic stability in human liver microsomes assessed as half life measured up to 60 mins in presence of NADPH by LC-MS/MS analysis; type: ADME, Microsome
[10] = AUC (0 to infinity) in male Sprague-Dawley rat at 10 mg/kg, po measured up to 24 hrs by LC-MS/MS analysis; type: ADME, organism-based; conditions: in vivo
MV4-11 [11] = experiment: Induction of apoptosis in human MV4-11 cells assessed as necrotic cells at 2 micromol/L measured after 48 hrs by Annexin V-FITC/PI double staining based flow cytometry analysis (reference value: 1.16 %); type: functional; conditions: dose 2 µmol/L, at 2 µM
[12] = AUC (0 to t) in male Sprague-Dawley rat at 10 mg/kg, po measured up to 24 hrs by LC-MS/MS analysis; type: ADME, organism-based; conditions: in vivo
[13] = target: T1, Amine oxidase [flavin-containing] A (Homo sapiens, UniProt P21397); experiment: Inhibition of human N-terminal Flag-tagged MAOA extracted baculovirus infected in Sf9 cells measured after 0.5 hrs by MAO-Glo Assay
T1 sequence (P21397 whole entry): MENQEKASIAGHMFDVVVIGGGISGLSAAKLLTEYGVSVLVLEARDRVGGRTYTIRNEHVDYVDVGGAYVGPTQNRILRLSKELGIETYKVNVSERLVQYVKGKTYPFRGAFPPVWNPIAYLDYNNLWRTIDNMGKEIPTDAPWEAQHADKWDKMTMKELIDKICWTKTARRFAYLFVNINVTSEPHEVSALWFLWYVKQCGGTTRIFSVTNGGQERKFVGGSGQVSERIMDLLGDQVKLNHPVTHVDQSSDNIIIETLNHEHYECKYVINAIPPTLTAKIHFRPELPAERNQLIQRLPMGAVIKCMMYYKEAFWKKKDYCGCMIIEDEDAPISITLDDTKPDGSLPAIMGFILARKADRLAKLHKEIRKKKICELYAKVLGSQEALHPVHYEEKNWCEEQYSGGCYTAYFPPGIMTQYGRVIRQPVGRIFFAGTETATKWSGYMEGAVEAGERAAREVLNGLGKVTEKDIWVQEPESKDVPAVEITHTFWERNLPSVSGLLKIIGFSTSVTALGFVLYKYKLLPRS

[14] = Upregulation of CD86 expression in human MV4-11 cells at 4 micromol/L incubated for 48 hrs by flow cytometry analysis relative to control; type: functional; conditions: dose 4 µmol/L, at 4 µM
[15] = Metabolic stability in human liver microsomes assessed as intrinsic clearance measured up to 60 mins in presence of NADPH by LC-MS/MS analysis; type: ADME, Microsome; conditions: read-out: CLH
[16] = Metabolic stability in rat liver microsomes assessed as half life measured up to 60 mins in presence of NADPH by LC-MS/MS analysis; type: ADME, Microsome
[17] = target: Voltage-gated inwardly rectifying potassium channel KCNH2 (Homo sapiens, UniProt Q12809); experiment: Inhibition of human ERG by whole cell patch clamp assay; type: toxicity
Sequence of Voltage-gated inwardly rectifying potassium channel KCNH2 (Q12809 whole entry): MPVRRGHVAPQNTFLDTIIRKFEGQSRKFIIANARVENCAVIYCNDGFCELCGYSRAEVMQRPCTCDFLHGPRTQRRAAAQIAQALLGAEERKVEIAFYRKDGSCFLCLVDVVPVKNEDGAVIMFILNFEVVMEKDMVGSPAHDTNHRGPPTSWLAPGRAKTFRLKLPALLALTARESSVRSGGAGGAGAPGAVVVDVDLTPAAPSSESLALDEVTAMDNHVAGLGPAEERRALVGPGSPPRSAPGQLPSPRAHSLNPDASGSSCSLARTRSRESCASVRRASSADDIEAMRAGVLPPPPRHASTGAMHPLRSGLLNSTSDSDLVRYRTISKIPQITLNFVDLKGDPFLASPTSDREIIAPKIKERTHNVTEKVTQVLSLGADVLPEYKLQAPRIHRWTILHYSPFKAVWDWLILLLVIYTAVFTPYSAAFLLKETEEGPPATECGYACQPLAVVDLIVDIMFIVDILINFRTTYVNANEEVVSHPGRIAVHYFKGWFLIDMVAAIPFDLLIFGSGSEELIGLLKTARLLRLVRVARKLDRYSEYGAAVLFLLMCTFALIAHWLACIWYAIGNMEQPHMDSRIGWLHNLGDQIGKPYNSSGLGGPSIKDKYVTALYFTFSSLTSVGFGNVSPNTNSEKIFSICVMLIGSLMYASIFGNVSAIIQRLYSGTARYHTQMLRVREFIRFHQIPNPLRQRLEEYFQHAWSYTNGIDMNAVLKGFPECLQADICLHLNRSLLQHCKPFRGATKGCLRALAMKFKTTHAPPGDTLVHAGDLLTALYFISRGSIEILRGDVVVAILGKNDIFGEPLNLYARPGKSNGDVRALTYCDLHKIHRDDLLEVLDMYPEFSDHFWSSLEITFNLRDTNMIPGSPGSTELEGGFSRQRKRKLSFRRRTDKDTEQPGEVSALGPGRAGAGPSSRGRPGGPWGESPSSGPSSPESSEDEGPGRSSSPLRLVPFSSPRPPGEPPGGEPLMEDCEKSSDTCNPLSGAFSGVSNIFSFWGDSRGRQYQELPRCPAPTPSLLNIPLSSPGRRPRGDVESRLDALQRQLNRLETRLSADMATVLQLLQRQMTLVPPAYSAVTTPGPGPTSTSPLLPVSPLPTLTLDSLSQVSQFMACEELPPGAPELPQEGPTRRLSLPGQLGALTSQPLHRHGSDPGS

MV4-11 [18] = experiment: Antiproliferative activity against human MV4-11 cells assessed as inhibition of cell growth measured after 7 days by cell-titer glo assay; type: functional, cell-based; conditions: MV4-11, 168 h
MV4-11 [19] = experiment: Induction of apoptosis in human MV4-11 cells assessed as viable cells at 4 micromol/L measured after 48 hrs by Annexin V-FITC/PI double staining based flow cytometry analysis (reference value: 89.13%); type: functional; conditions: MV4-11, 48 h, dose 4 µmol/L, read-out: Activity
[20] = Metabolic stability in rat liver microsomes assessed as intrinsic clearance measured up to 60 mins in presence of NADPH by LC-MS/MS analysis; type: ADME, Microsome; conditions: read-out: CLH

- solubility at 2 h [2]: 1.43 µM
- CLint scaled [4]: 261 mL/min/kg
- clearance [5]: 35.3 mL/min/kg
- inhibition [6]: Active
- bioavailability [8]: 6.01%
- half-life [9]: 11.6 min
- AUC(0-inf) [10]: 290 ng·h/mL
- AUC(0-t) at 24 h [12]: 280 ng·h/mL
- IC50 [13]: 840 nM
- CLint scaled [15]: 108 mL/min/kg
- half-life [16]: 3.94 min
- IC50 (MV4-11 [18]): 1400 nM
- CLint scaled [20]: 352 mL/min/kg
SMILES: Cl.O=S(=O)(c1ccccc1)n1ncc2cc(-n3cc(CN[C@@H]4C[C@H]4c4ccc(F)c(F)c4)nn3)ccc21
- Activity (MV4-11 [1]): Active
- viability at 3 µM (MV4-11 [3]): 80.8%
- Activity (MV4-11 [7]): Active
- Activity (MV4-11 [11]): 3.32%
- Activity [14]: 33.76%
- IC50 [17]: 576 nM
- viability at 4 µM (MV4-11 [19]): 77.4%
